pIC50: −log10 of the molar value.
Tests used:
human OAT3 = molecular target: T1, human OAT3 (Homo sapiens, UniProt Q8TCC7); test: Indirect uptake transporter assay, OAT3; type: in vitro ADME; parameters: key to Maximal Inhibition: ND: Not Determined (< 50% inhibition); NDe: Not Decisive (Activation or inhibition > 25% of the baseline but no trend observed); NIO: No Interaction Observed (< 20% inhibition)
T1 construct: expressed in transfected cells
T1 sequence (Q8TCC7 1-542): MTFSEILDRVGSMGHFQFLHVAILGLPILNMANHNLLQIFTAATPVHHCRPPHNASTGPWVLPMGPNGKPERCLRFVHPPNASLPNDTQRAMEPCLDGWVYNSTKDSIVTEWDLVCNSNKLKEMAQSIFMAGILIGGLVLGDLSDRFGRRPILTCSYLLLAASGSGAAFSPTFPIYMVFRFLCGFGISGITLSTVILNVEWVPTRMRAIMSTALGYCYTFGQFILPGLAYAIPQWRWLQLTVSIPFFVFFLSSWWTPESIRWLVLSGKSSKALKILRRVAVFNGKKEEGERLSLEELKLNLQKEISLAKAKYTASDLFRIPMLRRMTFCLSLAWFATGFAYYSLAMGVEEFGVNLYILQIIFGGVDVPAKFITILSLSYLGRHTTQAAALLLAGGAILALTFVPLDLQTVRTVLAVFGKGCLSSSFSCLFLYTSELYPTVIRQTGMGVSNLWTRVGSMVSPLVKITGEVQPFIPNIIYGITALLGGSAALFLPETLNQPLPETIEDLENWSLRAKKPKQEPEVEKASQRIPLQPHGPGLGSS
From the text: (§1) To determine whether memantine is an inhibitor of the human OATP2B1 (OATP-B), OCT1, OCT2, OAT3, PEPT1, PEPT2 uptake transporters. The standard uptake transporter assay is an indirect, inhibitory-type screening assay, performed with cold test article, which in this case was memantine. It provides information on any interaction (substrate or inhibitor) between selected uptake transporters and memantine that would affect the transport of the reporter compound. […] A radiolabeled reporter substrate is transported into the cells transfected with the selected human uptake transporter, and the inhibitory effect of memantine on the transport of this reporter substrate is measured. Values are presented on a relative scale; 100% defined as transport in the presence of the solvent and without memantine (no inhibition), and 0% defined as transport detected without transporter activity. IC50 is defined as the concentration required to inhibit the transport of the reporter substrate by 50%.
The uptake transporter assay was carried out under the conditions described in the table below, with either CHO cells or MDCKII cells stably expressing the respective uptake transporter.
Duplicate incubations of memantine (0 or DMSO control, 0.41, 1.2, 3.7, 11, 33, 100 and 300 µM) were conducted per concentration on transfected and in parental cells. A reference inhibitor (positive control, duplicate) was incubated in transfected cells.
CHO cells were cultured in a 1:1 mixture of Dubelcco’s Modified Eagle’s Medium (DMEM, Lonza, Allendale, NJ) and Ham's F-12 (F-12, Lonza, Allendale, NJ) and MDCKII cells in DMEM at 37°C in an atmosphere of 95:5 air:CO2. […]
(§2) After the experiment cells were rinsed with 2 x 100µl of Krebs-Henseleit buffer and lysed with 50 µl of 0.1M NaOH. ^3H-estrone-3-sulfate, ^14C-TEA, ^14C-metformin and ^3H-Gly-Sar transport was determined by total radioactivity by transferring an aliquot (35µl) from each well to a vial containing liquid scintillant for analysis.

OATP2B1 = molecular target: T2, OATP2B1 (Homo sapiens, UniProt O94956); test: Indirect uptake transporter assay, OATP2B1; type: in vitro ADME
T2 construct: expressed in transfected cells; host or cells: MDCKII cells
T2 sequence (O94956 1-709): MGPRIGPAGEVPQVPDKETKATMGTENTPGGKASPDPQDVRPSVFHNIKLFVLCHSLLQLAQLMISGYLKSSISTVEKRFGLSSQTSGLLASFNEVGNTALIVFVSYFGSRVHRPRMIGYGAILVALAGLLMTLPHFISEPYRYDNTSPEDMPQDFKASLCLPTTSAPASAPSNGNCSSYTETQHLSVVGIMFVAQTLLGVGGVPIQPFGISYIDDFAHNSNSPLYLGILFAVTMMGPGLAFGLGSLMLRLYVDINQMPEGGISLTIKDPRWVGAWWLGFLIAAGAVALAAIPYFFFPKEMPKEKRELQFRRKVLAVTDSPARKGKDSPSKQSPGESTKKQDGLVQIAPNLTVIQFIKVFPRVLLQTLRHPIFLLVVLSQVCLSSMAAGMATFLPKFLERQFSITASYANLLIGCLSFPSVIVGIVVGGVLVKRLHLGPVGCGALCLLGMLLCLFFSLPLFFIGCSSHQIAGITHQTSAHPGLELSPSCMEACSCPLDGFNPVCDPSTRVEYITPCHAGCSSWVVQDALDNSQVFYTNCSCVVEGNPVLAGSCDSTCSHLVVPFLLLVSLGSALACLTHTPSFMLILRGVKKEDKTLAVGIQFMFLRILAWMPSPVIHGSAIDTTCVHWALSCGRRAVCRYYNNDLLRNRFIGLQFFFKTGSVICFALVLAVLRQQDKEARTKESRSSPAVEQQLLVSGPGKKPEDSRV
From the text: as §1, with “50%. […]” for “50%.”
as §2

## CC12CC3CC(C)(C1)CC(N)(C3)C2 [memantine]
Human OAT3
  interaction with OAT3 mediated estrone-3-sulfate transport: did not interact
Human OAT3; OAT3, up to 300 µM
  Maximal Inhibition: NDe
Human OAT3; OAT3, probe printed in Table 5: Metformin (2µM), methods and text: E3S
  IC50: ND (Not Determined (< 50% inhibition))
OATP2B1; OATP2B1, probe printed in Table 5: TEA (3.6 μM), methods and text: E3S
  pIC50: < 3.52
OATP2B1; human, probe 3H-estrone-3-sulfate, at 300 µM, read-out: inhibition of OATP2B1-mediated estrone-3-sulfate transport
  inhibition at 300 µM: 67%
